In patent publication US20230158025A1 (UNIVERSITY OF UTAH RESEARCH FOUNDATION, priority 2020, published 2023):
Values joined by “and” are separate entries in the source; they are usually repeats but may differ in a detail not shown here. Equal values may be shown once. Read-outs that look alike come from different tables or passages of the source.

Key:
[1] = biological target: recombinant human GALK1 (Homo sapiens, UniProt P51570); experiment: hGALK1 biochemical activity assay (Kinase-Glo Plus, ATP depletion)
Sequence of recombinant human GALK1 (P51570 whole entry): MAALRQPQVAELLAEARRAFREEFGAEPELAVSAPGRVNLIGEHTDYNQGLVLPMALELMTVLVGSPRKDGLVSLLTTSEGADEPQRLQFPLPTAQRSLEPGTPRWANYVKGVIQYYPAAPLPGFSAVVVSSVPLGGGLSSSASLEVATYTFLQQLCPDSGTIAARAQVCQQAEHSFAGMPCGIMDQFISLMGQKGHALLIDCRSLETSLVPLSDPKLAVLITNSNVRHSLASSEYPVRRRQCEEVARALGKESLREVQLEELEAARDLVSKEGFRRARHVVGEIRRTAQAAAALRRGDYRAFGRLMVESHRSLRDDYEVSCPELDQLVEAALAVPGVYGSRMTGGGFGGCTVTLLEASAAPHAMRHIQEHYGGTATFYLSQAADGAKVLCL
Method in brief: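 Turnover is measured as ATP depletion by Kinase-Glo Plus luminescence after a 1 h room-temperature reaction. Compounds span 11 concentrations, 57.4 μM–0.97 nM, in final 20 mM HEPES pH 8.0 with 5 mM MgCl2. The substrate solution held 35 μM ATP; the added solution held 5 nM human or mouse GALK1 and 100 μM galactose.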

[2] = biological target: recombinant mouse GALK1 (Mus musculus, UniProt Q9R0N0); experiment: mGALK1 biochemical activity assay (Kinase-Glo Plus, ATP depletion)
Sequence of recombinant mouse GALK1 (Q9R0N0 whole entry): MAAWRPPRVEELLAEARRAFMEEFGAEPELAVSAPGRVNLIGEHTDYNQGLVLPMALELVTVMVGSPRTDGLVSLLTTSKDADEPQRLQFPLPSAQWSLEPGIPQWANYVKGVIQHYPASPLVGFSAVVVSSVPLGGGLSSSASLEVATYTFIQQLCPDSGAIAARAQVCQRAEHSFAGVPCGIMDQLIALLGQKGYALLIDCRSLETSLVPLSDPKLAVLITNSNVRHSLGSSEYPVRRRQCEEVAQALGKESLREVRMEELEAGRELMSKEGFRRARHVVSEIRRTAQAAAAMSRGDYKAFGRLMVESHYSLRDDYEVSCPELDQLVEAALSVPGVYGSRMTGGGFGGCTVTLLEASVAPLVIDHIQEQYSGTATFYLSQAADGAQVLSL
Method in brief: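 Recombinant GALK1 (5 nM) with 100 μM galactose; GALK1 turnover read as ATP depletion by Kinase-Glo Plus luminescence. Reaction ran 1 h at room temperature before detection reagent was added.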

[3] = biological target: T1, hGALK1m (Homo sapiens, UniProt P51570, E253A/K252A); experiment: in vitro hGALK1 activity assay of the structure-based optimisation (Example 12, Tables 17-20); type: biochemical; settings: for fold decrease of potency versus parent compound: loss of potency relative to the unsubstituted parent
T1 construct: made in house; host or cells: E. coli HMS174
T1 sequence (P51570 whole entry K252A/E253A): as the sequence (P51570 whole entry) above, with K252A, E253A counted along it
Protocol: In vitro hGALK1 activity assays were performed as previously described. Liu et al., Bioorg. Med. Chem. Lett. 25(3): 721-727 (2015), which is incorporated by reference herein for the specific teachings thereof. The biochemical assay was performed by coupling the activity of recombinant human or mouse GALK1 to the Kinase-Glo Plus luminescent ATP detection kit, using ATP depletion as a measure of GALK1 turnover. Specifically, three μL/well of ATP substrate solution (35 μM ATP) in assay buffer (20 mM HEPES pH 8.0, 5 mM MgCl2, 60 mM NaCl, 1 mM DTT, 0.01% BSA final concentration) was dispensed into 1536-well assay plates (Greiner, white solid-bottom medium-binding plates). Aliquots of compound (23 nL solubilized in DMSO) were transferred to the assay plates using a Kalypsys 1536-well pintool such that 11 concentrations with 1/3 dilutions ranging from 57.4 μM-0.97 nM are tested. One μL/well of GALK-galactose solution (5 nM GALK1, 100 μM galactose) in assay buffer was then added, yielding a final reaction volume of 4 μL/well. Following a 1-hour room temperature incubation, 4 μL of Kinase-Glo Plus detection reagent was added to provide an ATP-dependent luminescent readout (final assay volume: 8 μL/well). Luminescence was detected using a ViewLux plate reader (PerkinElmer) after a 10-minute incubation, using a 1 second exposure time and 2× binning.
The in vitro hGALK1 activity assay was performed as previously described. Liu et al., Bioorg. Med. Chem. Lett. 25(3): 721-727 (2015). For the measurement of cellular Gal-1P reduction, compounds at different concentrations were added to cultured patient fibroblast at 80% confluency. After incubating the compounds for 16 hours, 10 mM galactose was added to the culture. After another 4 hours, cells were washed with cold PBS buffer 3× and harvested for gal-1P measurement, according to the previously published method. Liu et al., Bioorg. Med. Chem. Lett. 25(3): 721-727 (2015).

[4] = PAMPA permeability; settings: for Papp: PAMPA
[5] = aqueous kinetic solubility
[6] = rat microsomal stability (RLM); settings: for half-life: rat, rat liver microsomes
[7] = Tables 2-15, 35 μM ATP, 100 μM galactose, 1 h, bracketed figure after some values (e.g. −1.2) is undefined and not reported, read-out: hGALK IC50
[8] = recombinant human GALK1, Kinase-Glo Plus ATP depletion, read-out: hGALK
[9] = Tables 2-15, 35 μM ATP, 100 μM galactose, 1 h, bracketed figure after some values is undefined and not reported, read-out: mGALK IC50
[10] = recombinant mouse GALK1, Kinase-Glo Plus ATP depletion, read-out: mGALK
[11] = Tables 18-20 and text of Example 12
[12] = 1 h, Table 17, read-out: Efficacy
[13] = ADME P: PAMPA permeability (class), Tables 17-19, class probably colour-coded, colour lost
[14] = Tables 18-19 and text of Example 12
[15] = Tables 18-19, read-out: Max Response (%)

IC50 [1, 7] [µM] | IC50 [1, 8] [µM] | IC50 [2, 9] [µM] | IC50 [2, 10] [µM] | IC50 [3, 11] | Papp ([4]; Perm. (1 × 10^−6 cm/sec)) [×10⁻⁶ cm/s] | Sol. ([5]; aqueous kinetic solubility) [µg/mL] | Metab. Stabil. (m) ([6]; microsomal stability half-life) | Emax [3, 12] [%] | Papp [4, 13] [×10⁻⁶ cm/s] | half-life [6] [min] | IC50 [3, 14] [µM] | change of potency versus parent compound (in words) [3] | Emax [3, 15] [%] | Perm. (1 × 10^−6 cm/sec) [4] | Sol. [5] [µg/mL] | Metab. Stabil. (m) ([6]; microsomal half-life) | fold decrease of potency versus parent compound [3] | fold improvement of potency (IC50) versus parent compound ([3]; increase in potency relative to the unsubstituted parent) [fold] | SMILES
0.05 | 0.05 | 0.61 | 0.61 | 0.023 µM and 0.022 µM | 410 | <1 | 14.08 |  |  |  |  |  |  |  |  |  |  |  | CCn1cc(CNC(=O)C2=C(C)NC(Nc3nc4ccc(F)c(N)c4o3)=NC2c2ccc(C)cc2Cl)cn1 (racemic) [Compound 125, 2-((7-amino-6-fluorobenzo[d]oxazol-2-yl)amino)-4-(2-chloro-4-methylphenyl)-N-((1-ethyl-1H-pyrazol-4-yl)methyl)-6-methyl-1,4-dihydropyrimidine-5-carboxamide]
1.08 | 1.08 | 6.85 | 6.85 | 0.97 µM | < 1 | >74 | >30 | 88 | < 10 | < 10 |  |  |  |  |  |  |  |  | CC1=C(C(=O)Nc2cc(C(=O)O)ccn2)C(c2ccccc2Cl)N=C(Nc2nc3ccccc3o2)N1 (racemic) [Compound 194, 2-(2-(benzo[d]oxazol-2-ylamino)-4-(2-chlorophenyl)-6-methyl-1,4-dihydropyrimidine-5-carboxamido)isonicotinic acid]
1.09 | 1.09 | 7.69 | 7.69 |  | 868 | 26.6 | 14.56 | 90 | < 10 | < 10 | 0.77 |  |  |  |  |  |  |  | CC1=C(C(=O)NCc2cn(C)cn2)C(c2ccccc2Cl)N=C(Nc2nc3ccccc3o2)N1 (racemic) [Compound 233, 2-(benzo[d]oxazol-2-ylamino)-4-(2-chlorophenyl)-6-methyl-N-((1-methyl-1H-imidazol-4-yl)methyl)-1,4-dihydropyrimidine-5-carboxamide]
1.37 |  | 3.06 | 3.06 | 0.611 µM |  |  |  |  | < 10 | < 10 |  | slightly improved the potency | 100 | <1 1 × 10^−6 cm/sec | <1 | >30 |  |  | CC1=C(C(=O)Nc2cc(C(=O)O)ccn2)C(c2ccccc2Cl)N=C(Nc2nc3cc(C)ccc3o2)N1 (stereo not shown) [Compound 4, 2-(4-(2-chlorophenyl)-6-methyl-2-((5-methylbenzo[d]oxazol-2-yl)amino)-1,4-dihydropyrimidine-5-carboxamido)isonicotinic acid]
 | 6.85 | 12.2 | 12.2 |  |  |  |  |  | < 10 | < 10 | 2 |  | 100 | <1 1 × 10^−6 cm/sec | >79 | >30 |  |  | COc1ccc2oc(NC3=NC(c4ccccc4Cl)C(C(=O)Nc4cc(C(=O)O)ccn4)=C(C)N3)nc2c1 (stereo not shown) [Compound 5, 2-(4-(2-chlorophenyl)-2-((5-methoxybenzo[d]oxazol-2-yl)amino)-6-methyl-1,4-dihydropyrimidine-5-carboxamido)isonicotinic acid]
5.44 |  | 17.2 | 17.2 |  |  |  |  |  | < 10 | < 10 | 6.9 |  | 100 | <1 1 × 10^−6 cm/sec | 34.42 | >30 | ~7 fold |  | CC1=C(C(=O)Nc2cc(C(=O)O)ccn2)C(c2ccccc2Cl)N=C(Nc2nc3ccc(C)cc3o2)N1 (stereo not shown) [Compound 6, 2-(4-(2-chlorophenyl)-6-methyl-2-((6-methylbenzo[d]oxazol-2-yl)amino)-1,4-dihydropyrimidine-5-carboxamido)isonicotinic acid]
 | 1.72 | 8.63 | 8.63 |  |  |  |  |  | < 10 | < 10 | 1 | did not change the potency | 100 | <1 1 × 10^−6 cm/sec | >77 | >30 |  |  | CC1=C(C(=O)Nc2cc(C(=O)O)ccn2)C(c2ccccc2Cl)N=C(Nc2nc3cccc(F)c3o2)N1 (stereo not shown) [Compound 10, 2-(4-(2-chlorophenyl)-2-((7-fluorobenzo[d]oxazol-2-yl)amino)-6-methyl-1,4-dihydropyrimidine-5-carboxamido)isonicotinic acid]
5.44 |  | 13.7 | 13.7 |  |  |  |  |  | < 10 | < 10 | 5.8 |  | 85 | <1.3 1 × 10^−6 cm/sec | <1 | >30 |  |  | CC1=C(C(=O)Nc2cc(C(=O)O)ccn2)C(c2ccccc2Cl)N=C(Nc2nc3c(Cl)cccc3o2)N1 (stereo not shown) [Compound 11, 2-(2-((4-chlorobenzo[d]oxazol-2-yl)amino)-4-(2-chlorophenyl)-6-methyl-1,4-dihydropyrimidine-5-carboxamido)isonicotinic acid]
7.69 |  | 21.7 | 21.7 |  |  |  |  |  | < 10 | < 10 | 5.5 |  | 100 |  | >76 | >30 |  |  | CC1=C(C(=O)Nc2cc(C(=O)O)ccn2)C(c2ccccc2Cl)N=C(Nc2nc3cc(N)ccc3o2)N1 (stereo not shown) [Compound 12, 2-(2-((5-aminobenzo[d]oxazol-2-yl)amino)-4-(2-chlorophenyl)-6-methyl-1,4-dihydropyrimidine-5-carboxamido)isonicotinic acid]
 | 1.93 | 6.11 | 6.11 |  |  |  |  |  | < 10 | < 10 | 2.25 |  | 100 |  | 6.3 | >30 | more than 2 fold |  | CC1=C(C(=O)Nc2cc(C(=O)O)ccn2)C(c2ccccc2Cl)N=C(Nc2nc3ccc(Cl)cc3o2)N1 (stereo not shown) [Compound 14, 2-(2-((6-chlorobenzo[d]oxazol-2-yl)amino)-4-(2-chlorophenyl)-6-methyl-1,4-dihydropyrimidine-5-carboxamido)isonicotinic acid]
0.97 |  | 6.85 | 6.85 | 0.365 µM |  |  |  |  | < 10 | < 10 |  |  | 100 |  | >76 | >30 |  | 2.6 | CC1=C(C(=O)Nc2cc(C(=O)O)ccn2)C(c2ccccc2Cl)N=C(Nc2nc3cccc(C)c3o2)N1 (stereo not shown) [Compound 15, 2-(4-(2-chlorophenyl)-6-methyl-2-((7-methylbenzo[d]oxazol-2-yl)amino)-1,4-dihydropyrimidine-5-carboxamido)isonicotinic acid]
